Laboratory results: article PMC11968506, “Toxicokinetics and analytical toxicology of the phenmetrazine-derived new psychoactive substance 3,4-methylenedioxyphenmetrazine studied by means of in vitro systems” (Archives of Toxicology, 2025)

Experiments:
CYP2C8 = biological target: T1, CYP2C8 (Homo sapiens, UniProt P10632); experiment: CYP inhibition cocktail assay in pHLM, CYP2C8 (amodiaquine); settings: inhibitor 20 µM
T1 sequence (P10632 1-490): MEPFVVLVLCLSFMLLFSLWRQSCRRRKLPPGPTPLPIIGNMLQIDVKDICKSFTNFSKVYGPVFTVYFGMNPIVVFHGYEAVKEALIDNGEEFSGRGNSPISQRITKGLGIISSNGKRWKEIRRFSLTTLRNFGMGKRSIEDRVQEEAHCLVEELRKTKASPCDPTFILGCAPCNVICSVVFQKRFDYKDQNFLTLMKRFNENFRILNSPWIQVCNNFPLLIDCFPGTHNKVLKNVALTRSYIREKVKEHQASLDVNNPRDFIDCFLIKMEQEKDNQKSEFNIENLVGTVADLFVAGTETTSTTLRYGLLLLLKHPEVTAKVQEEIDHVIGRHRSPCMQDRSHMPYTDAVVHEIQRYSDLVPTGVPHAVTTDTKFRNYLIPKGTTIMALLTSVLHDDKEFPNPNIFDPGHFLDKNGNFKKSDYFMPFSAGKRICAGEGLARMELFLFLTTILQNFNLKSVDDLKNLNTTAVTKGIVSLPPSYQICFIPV
Protocol: A modified dual-cocktail based method (Dinger et al. [2014b]) was used. Substrate cocktail A consisted of 8.9 µM dextromethorphan (CYP2D6), 86 µM testosterone (CYP3A4), 3.5 µM diclofenac (CYP2C9), and 12 µM phenacetin (CYP1A2). Substrate cocktail B included 30 µM bupropion (CYP2B6), 2 µM amodiaquine (CYP2C8) and 21 µM omeprazole (CYP2C19). Substrate concentrations were near their respective Michaelis–Menten constant (Km) values (Dinger et al. [2014a]) and all concentrations are final. Enzyme inhibition was investigated using a positive control, a test group, a control group, an interference group, and a negative control. In the test group, specific inhibitors were replaced by MDPM (20 µM). Instead of inhibitors, phosphate buffer was used in the control group. Enzymes were replaced with phosphate buffer in the negative control group. The interference group was incubated like the control group, but the reaction was stopped with 20 µM MDPM in acetonitrile, also containing 2.5 µM trimipramine-d3. All groups were incubated with a NADPH-regenerating system, consisting of 5 mM isocitrate, 2 U/mL isocitrate dehydrogenase, 5 mM Mg^2+, and 1.2 mM NADP^+. Further, substrate cocktail A or B, 90 mM phosphate buffer (pH 7.4), and 200 U/mL superoxide dismutase were added to each group. […] All groups were preincubated for 10 min at 37 °C. Then, pHLM (0.4 mg microsomal protein/mL) was added to each group except the negative control. Incubations were done for 15 min at 37 °C. Therefore, 50 µL of acetonitrile (− 20 °C) containing 2.5 µM trimipramine-d3 as internal standard was added. Incubations were done in triplicates and organic solvent in the incubation mixture was below 1% (Chauret et al. [1998]). Afterwards the samples were vortexed and centrifuged for 2 min at 18,407×g. 70 µL of the supernatant were transferred to autosampler vials and 10 µL were injected onto the LC-HRMS/MS system. Enzyme inhibition was evaluated by metabolite formation. […] The following settings were used: unpaired; one-tailed; significance level, 0.05; confidence intervals, 99%.

CYP1A2 = biological target: T2, CYP1A2 (Homo sapiens, UniProt P05177); experiment: CYP inhibition cocktail assay in pHLM, CYP1A2 (phenacetin)
T2 sequence (P05177 1-516): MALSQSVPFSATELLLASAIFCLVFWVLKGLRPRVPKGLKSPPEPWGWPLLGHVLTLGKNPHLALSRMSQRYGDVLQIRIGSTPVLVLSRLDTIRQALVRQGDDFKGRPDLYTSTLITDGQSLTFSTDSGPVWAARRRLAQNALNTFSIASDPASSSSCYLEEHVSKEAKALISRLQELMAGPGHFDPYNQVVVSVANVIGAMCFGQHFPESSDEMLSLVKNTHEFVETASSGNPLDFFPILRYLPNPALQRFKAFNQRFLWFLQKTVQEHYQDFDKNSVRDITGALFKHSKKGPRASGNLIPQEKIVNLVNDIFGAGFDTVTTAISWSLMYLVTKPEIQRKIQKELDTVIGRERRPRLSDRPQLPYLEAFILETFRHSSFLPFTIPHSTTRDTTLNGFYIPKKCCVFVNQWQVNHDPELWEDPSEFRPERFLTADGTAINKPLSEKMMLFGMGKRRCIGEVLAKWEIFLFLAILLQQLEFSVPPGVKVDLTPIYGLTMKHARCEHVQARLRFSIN
Protocol: A modified dual-cocktail based method (Dinger et al. [2014b]) was used. Substrate cocktail A consisted of 8.9 µM dextromethorphan (CYP2D6), 86 µM testosterone (CYP3A4), 3.5 µM diclofenac (CYP2C9), and 12 µM phenacetin (CYP1A2). Substrate cocktail B included 30 µM bupropion (CYP2B6), 2 µM amodiaquine (CYP2C8) and 21 µM omeprazole (CYP2C19). Substrate concentrations were near their respective Michaelis–Menten constant (Km) values (Dinger et al. [2014a]) and all concentrations are final. Enzyme inhibition was investigated using a positive control, a test group, a control group, an interference group, and a negative control. In the test group, specific inhibitors were replaced by MDPM (20 µM). Instead of inhibitors, phosphate buffer was used in the control group. Enzymes were replaced with phosphate buffer in the negative control group. The interference group was incubated like the control group, but the reaction was stopped with 20 µM MDPM in acetonitrile, also containing 2.5 µM trimipramine-d3. All groups were incubated with a NADPH-regenerating system, consisting of 5 mM isocitrate, 2 U/mL isocitrate dehydrogenase, 5 mM Mg^2+, and 1.2 mM NADP^+. Further, substrate cocktail A or B, 90 mM phosphate buffer (pH 7.4), and 200 U/mL superoxide dismutase were added to each group. […] All groups were preincubated for 10 min at 37 °C. […] Enzyme inhibition was evaluated by metabolite formation. […]

CC1NCCOC1c1ccc2c(c1)OCO2 (stereo not shown) [MDPM, 2-(1,3-benzodioxol-5-yl)-3-methylmorpholine]
CYP2C8 metabolite formation (CYP2C8; amodiaquine 2 µM, pHLM 0.4 mg/mL, 15 min, control without inhibitor = 100%): 105%
inhibition of CYP2C8 (CYP2C8; amodiaquine, pHLM, t-test versus control): no significant inhibition
inhibition at 15 min, 20 µM (CYP1A2; human, pooled human liver microsomes (pHLM), pH 7.4, probe phenacetin (12 µM)): 39%
CYP1A2 metabolite formation (CYP1A2; inhibitor 20 µM, phenacetin 12 µM, pHLM 0.4 mg/mL, 15 min, control without inhibitor = 100%): 61%
